Results reported in patent US6716858B1, “Methods for inhibiting diabetic complications” (Kansas University Medical Center, priority 1995, dated 2004).

Tests used:
[1] = tested on: AGE formation in human methemoglobin (Hb); experiment: Uninterrupted glycation of human methemoglobin with glucose, anti-AGE ELISA; assay type: biochemical; details: Hb 1 mg/ml, 1.0 M glucose, 3 weeks; inhibitors 0.5, 3, 15 and 50 mM
Description: (§1) Uninterrupted Glycation with Glucose Bovine serum albumin, ribonuclease A, and human hemoglobin were incubated with glucose at 37° C. in 0.4 M sodium phosphate buffer of pH 7.5 containing 0.02% sodium azide. The protein, glucose (at 1.0 M), and prospective inhibitors (at 0.5, 3, 15 and 50 mM) were introduced into the incubation mixture simultaneously. Solutions were kept in the dark in capped tubes. Aliquots were taken and immediately frozen until analyzed by ELISA at the conclusion of the reaction. The incubations were for 3 weeks (Hb) or 6 weeks (RNase, BSA).
(§2) ELISA detection of AGE products. The general method of Engvall (1981, Methods Enzymol. 70:419-439) was used to perform the ELISA. Typically, glycated protein samples were diluted to approximately 1.5 ug/ml in 0.1 M sodium carbonate buffer of pH 9.5 to 9.7. The protein was coated overnight at room temperature onto 96-well polystyrene plates by pippetting 200 ul of the protein solution in each well (0.3 ug/well). After coating, the protein was washed from the wells with a saline solution containing 0.05% Tween-20. The wells were then blocked with 200 ul of 1% casein in carbonate buffer for 2 h at 37° C. followed by washing. Rabbit anti-AGE antibodies were diluted at a titer of about 1:350 in incubation buffer, and incubated for 1 h at 37° C., followed by washing. In order to minimize background readings, antibodies R479 used to detect glycated RNase were raised against glycated BSA, and antibodies R618 used to detect glycated BSA and glycated Hb were raised against glycated RNase. An alkaline phosphatase-conjugated antibody to rabbit IgG was then added as the secondary antibody at a titer of 1:2000 or 1:2500 (depending on lot) and incubated for 1 h at 37° C., followed by washing. The p-nitrophenylphosphate substrate solution was then added (200 ul/well) to the plates, with the absorbance of the released p-nitrophenolate being monitored at 410 nm with a Dynatech MR 4000 microplate reader.
(§3) Aliquots were assayed by ELISA using R618 anti-AGE antibodies.
as §3

[2] = tested on: AGE formation in bovine serum albumin (BSA); experiment: Uninterrupted glycation of BSA with glucose, anti-AGE ELISA; assay type: biochemical; details: BSA 10 mg/ml, 1.0 M glucose, pH 7.5, 37° C., 6 weeks; inhibitors 3, 15 and 50 mM
Description: as §1, §2
FIGS. 1 A-D are graphs which show the effect of vitamin B6 derivatives on post-Amadori AGE formation in bovine serum albumin glycated with glucose. BSA (10 mg/ml) was incubated with 1.0 M glucose in the presence and absence of the various indicated derivative in 0.4 M sodium phosphate buffer of pH 7.5 at 37° C. for 6 weeks. Aliquots were assayed by ELISA using R618 anti-AGE antibodies. Concentrations of the inhibitors were 3, 15 and 50 mM. Inhibitors used in FIGS. (1A) Pyridoxamine (PM); (1B) pyridoxal phosphate (PLP); (1C) pyridoxal (PL); (1D) pyridoxine (PN).
FIGS. 2A-D are graphs which show the effect of vitamin B1 derivatives and aminoguanidine (AG) on AGE formation in bovine serum albumin. BSA (10 mg/ml) was incubated with 1.0 M glucose in the presence and absence of the various indicated derivative in 0.4 M sodium phosphate buffer of pH 7.5 at 37° C. for 6 weeks. Aliquots were assayed by ELISA using R618 anti-AGE antibodies. Concentrations of the inhibitors were 3, 15 and 50 mM. Inhibitors used in FIGS. (2A) Thiamine pyrophosphate (TPP); (2B) thiamine monophosphate (TP); (2C) thiamine (T); (2D) aminoguanidine (AG).

[3] = tested on: ribose-treated rats; experiment: Ribose rat model, intervention by compounds (Phase III); assay type: in vivo; details: for Albumin effusion rate (AER): absence of ribose, pyridoxamine and TPP 250 mg/kg, aminoguanidine 25 mg/kg
Description: Sixty rats were randomized into 9 different groups, including those exposed to 1 M ribose for 8 days in the presence and absence of aminoguanidine, pyridoxamine, and thiamine pyrophosphate as follows:
(ii) high dose (250 mg/kg body weight) of pyridoxamine (“compound-P”);
(iii) high dose (250 mg/kg body weight of thiamine pyrophosphate (“compound-T” or “TPP”); and
(iv) low dose (25 mg/kg body weight) of aminoguanidine (“AG”).
(i) only 1 M ribose-saline (2×9 cc daily IP for 8 days);
(ii) ribose plus low dose (“LP”) of pyridoxamine (25 mg/kg body weight injected as 0.5 ml with 9 cc ribose);
(iii) ribose plus high dose (“HP”) of pyridoxamine (250 mg/kg body weight injected as 0.5 ml with 9 cc ribose);
(iv) ribose plus high dose (“HT”) of thiamine pyrophosphate (250 mg/kg body weight injected as 0.5 ml with 9 cc ribose); and
(v) ribose plus low dose of amino guanidine (25 mg/kg body weight injected as 0.5 ml with 9 cc ribose).
Unlike Phase II, no ribose was administered in drinking water. Intervention compounds were pre-administered for one day prior to introducing them with ribose.

[4] = tested on: post-Amadori AGE formation, RNase Amadori intermediate; experiment: Interrupted (post-Amadori) ribose glycation assay, RNase; assay type: biochemical, bovine; details: RNase
Description: as §2
Glycation Modifications Modification with ribose or glucose was generally done at 37° C. in 0.4 M phosphate buffer of pH 7.5 containing 0.02% sodium azide. The high buffer concentration was always used with 0.5 M ribose modifications. The solutions were kept in capped tubes and opened only to remove timed aliquots that were immediately frozen for later carrying out the various analyses. “Interrupted glycation” experiments were carried out by first incubating protein with the ribose at 37° C. for 8 or 24 h, followed by immediate and extensive dialysis against frequent cold buffer changes at 4° C. The samples were then reincubated by quickly warming to 37° C. in the absence of external ribose. Aliquots were taken and frozen at various intervals for later analysis. Due to the low molecular weight of RNase, protein concentrations were remeasured after dialysis even when low molecular weight cut-off dialysis tubing was used. An alternative procedure was also devised (see below) in which interruption was achieved by simple 100-fold dilution from reaction mixtures containing 0.5 M ribose. Protein concentrations were estimated from UV spectra. The difference in molar extinction between the peak (278 nm) and trough (250 nm) was used for RNase concentration determinations in order to compensate for the general increase in UV absorbance that accompanies glycation. Time-dependent UV-difference spectral studies were carried out to characterize the glycation contributions of the UV spectrum. […]
Glycation was first carried out by incubating protein (10 mg/ml) with 0.5 M ribose at 37° C. in 0.4 M phosphate buffer at pH 7.5 containing 0.2% sodium azide for 24 h in the absence of inhibitors. Glycation was then interrupted to remove excess and reversibly bound (Schiff base) sugar by extensive dialysis against frequent cold buffer changes at 4° C.

[5] = co-administered with 1 M ribose, 250 mg/kg
[6] = co-administered with 1 M ribose, low dose 25 mg/kg
[7] = compound alone, 250 mg/kg, no ribose
[8] = 24 h in 0.5 M ribose, then free ribose removed, 37° C.

| Albumin effusion rate (AER) [3] | inhibition of post-Amadori AGE formation ([4]; 50 mM inhibitor) | SMILES | inhibition of antigenic AGE formation (ELISA) [1] | inhibition of antigenic AGE formation (ELISA) [2] | creatinine clearance [3, 5] | Albumin effusion rate [3, 6] | creatinine clearance [3, 6] | creatinine clearance [3, 7] | inhibition of post-Amadori AGE formation [4, 8] |
| --- | --- | --- | --- | --- | --- | --- | --- | --- | --- |
| elevated | – | Cc1ncc(CO)c(CN)c1O [pyridoxamine] | the most effective inhibitors in each of their respective families | strongly suppressed antigenic AGE formation at even the lowest concentrations tested | only partial protection against the ribose-induced decrease in creatinine clearance | restored to normal | normalized | but not pyridoxamine, appeared to decrease creatinine clearance | nearly complete inhibition of AGE formation with RNase at 15 mM and 50 mM |
| elevated | less than 15% | N=C(N)NN [aminoguanidine, reference compound] | only inhibited the rate of AGE formation, and not the final levels of AGE formed | produced some inhibition of AGE formation in BSA, but less so than the above compounds | – | restored to normal | normalized | – | modest effects on blocking the formation of antigenic AGEs in RNase |
| elevated | – | Cc1ncc(C[n+]2csc(CCO[P@](=O)(O)OP(=O)(O)O)c2C)c(N)n1 [thiamine pyrophosphate] | the most effective inhibitors in each of their respective families | effective at all concentrations tested | only partial protection against the ribose-induced decrease in creatinine clearance | – | – | diminished it | inhibited AGE formation more effectively than the other B1 derivatives |
